Measured values published in patent US20030190377A1, “Novel use of the extract of processed Panax genus plant and saponin compound isolated therefrom” (Ginseng Science Inc., priority 2002, published 2003).
In brackets after ≈: the same amount, converted by molar mass. Like-named read-outs stand apart in the source and are kept apart here.

Tests used:
H+/K+-ATPase = H+/K+-ATPase (Rattus norvegicus, UniProt P09626); assay: H+/K+-ATPase activity inhibition test; conditions: for IC50 for H+/K+-ATPase: stomach enzyme, pre-incubated 37° C. 30 minutes, pH 7.4
H+/K+-ATPase, sequence (P09626 whole entry): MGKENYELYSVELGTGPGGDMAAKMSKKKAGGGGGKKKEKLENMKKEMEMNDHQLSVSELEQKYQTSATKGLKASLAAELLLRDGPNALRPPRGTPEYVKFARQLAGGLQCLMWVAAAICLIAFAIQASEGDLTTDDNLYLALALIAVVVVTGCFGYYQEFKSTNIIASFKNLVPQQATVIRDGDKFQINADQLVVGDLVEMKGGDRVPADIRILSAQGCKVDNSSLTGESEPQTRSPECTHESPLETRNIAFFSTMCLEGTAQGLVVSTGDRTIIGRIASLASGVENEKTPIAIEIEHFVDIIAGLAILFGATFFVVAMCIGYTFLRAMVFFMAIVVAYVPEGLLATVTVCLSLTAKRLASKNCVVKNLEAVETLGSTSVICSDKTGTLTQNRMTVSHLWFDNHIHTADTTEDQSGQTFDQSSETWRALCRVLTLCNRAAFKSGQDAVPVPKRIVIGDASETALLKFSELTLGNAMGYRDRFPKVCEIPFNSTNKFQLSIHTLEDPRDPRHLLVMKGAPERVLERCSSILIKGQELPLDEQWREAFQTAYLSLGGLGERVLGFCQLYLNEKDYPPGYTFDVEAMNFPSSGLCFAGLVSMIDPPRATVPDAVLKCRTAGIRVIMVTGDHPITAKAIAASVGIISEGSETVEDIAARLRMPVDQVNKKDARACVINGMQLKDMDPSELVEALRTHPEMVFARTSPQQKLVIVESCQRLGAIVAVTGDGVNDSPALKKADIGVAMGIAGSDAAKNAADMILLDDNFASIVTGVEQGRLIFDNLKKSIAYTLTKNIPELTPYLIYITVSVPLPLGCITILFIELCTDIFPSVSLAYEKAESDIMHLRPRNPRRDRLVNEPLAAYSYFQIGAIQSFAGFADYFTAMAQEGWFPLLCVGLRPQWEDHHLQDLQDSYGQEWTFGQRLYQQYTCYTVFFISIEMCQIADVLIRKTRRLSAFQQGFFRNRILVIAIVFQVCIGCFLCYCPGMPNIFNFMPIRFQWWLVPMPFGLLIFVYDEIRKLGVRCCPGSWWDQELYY
H+/K+-ATPase, sequence (P18598 whole entry partner): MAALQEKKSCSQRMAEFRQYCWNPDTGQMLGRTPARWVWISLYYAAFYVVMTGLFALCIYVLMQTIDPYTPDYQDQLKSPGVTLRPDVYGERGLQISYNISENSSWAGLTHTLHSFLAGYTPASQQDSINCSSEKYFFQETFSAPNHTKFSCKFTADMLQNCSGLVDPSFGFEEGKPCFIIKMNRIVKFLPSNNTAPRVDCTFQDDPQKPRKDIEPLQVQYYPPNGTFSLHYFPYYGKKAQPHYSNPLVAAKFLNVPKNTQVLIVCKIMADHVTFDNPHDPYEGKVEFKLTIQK

Helicobacter pylori = assay: Inhibitory effect on proliferation of Helicobacter pylori (MIC, Brucella agar); assay type: cell-based
[1] = H. pylori strain ATCC 43504, 37° C., 3 days
[2] = H. pylori strain Clinical 4, 37° C., 3 days
[3] = H. pylori strain Clinical 82516, 37° C., 3 days
[4] = H. pylori strain Clinical 82548, 37° C., 3 days
[5] = H. pylori strain NCTC 11637, 37° C., 3 days
[6] = H. pylori strain NCTC 11638, 37° C., 3 days

Structure (SMILES) | MIC ATCC 43504 (Helicobacter pylori; [1]) | MIC Clinical 4 (Helicobacter pylori; [2]) | MIC Clinical 82516 (Helicobacter pylori; [3]) | MIC Clinical 82548 (Helicobacter pylori; [4]) | MIC NCTC 11637 (Helicobacter pylori; [5]) | MIC NCTC 11638 (Helicobacter pylori; [6]) | IC50 for H+/K+-ATPase (H+/K+-ATPase) | also measured
COc1ccc2[nH]c([S+]([O-])Cc3ncc(C)c(OC)c3C)nc2c1 (centres unmarked) [Omeprazole, reference compound] |  |  |  |  |  |  |  | IC50 (H+/K+-ATPase): 57.9 µM
CC(C)=CCC[C@@](C)(O)[C@H]1CC[C@]2(C)[C@@H]1[C@H](O)C[C@@H]1[C@@]3(C)CC[C@H](O[C@@H]4O[C@H](CO)[C@@H](O)[C@H](O)[C@H]4O)C(C)(C)[C@@H]3CC[C@]12C [20(R)-ginsenoside Rh2] | 100 µg/mL (≈ 161 µM) | 100 µg/mL (≈ 161 µM) | 100 µg/mL (≈ 161 µM) | 100 µg/mL (≈ 161 µM) | 100 µg/mL (≈ 161 µM) | 100 µg/mL (≈ 161 µM) | 500 µg/mL | 
CC(C)=CCC[C@](C)(O)[C@H]1CC[C@]2(C)[C@@H]1[C@H](O)C[C@@H]1[C@@]3(C)CC[C@H](O)C(C)(C)[C@@H]3[C@@H](O)C[C@]12C [Protopanaxatriol] | 50 µg/mL (≈ 105 µM) | 50 µg/mL (≈ 105 µM) | 50 µg/mL (≈ 105 µM) | 50 µg/mL (≈ 105 µM) | 50 µg/mL (≈ 105 µM) | 50 µg/mL (≈ 105 µM) |  | 
CC(C)=CCC[C@](C)(O[C@@H]1O[C@H](CO[C@@H]2O[C@@H](CO)[C@H](O)[C@H]2O)[C@@H](O)[C@H](O)[C@H]1O)[C@H]1CC[C@]2(C)[C@@H]1[C@H](O)C[C@@H]1[C@@]3(C)CC[C@H](O[C@@H]4O[C@H](CO)[C@@H](O)[C@H](O)[C@H]4O[C@@H]4O[C@H](CO)[C@@H](O)[C@H](O)[C@H]4O)C(C)(C)[C@@H]3CC[C@]12C [Ginsenoside Rc] |  |  |  |  |  |  |  | MIC (Helicobacter pylori; Helicobacter pylori, 72 h, H. pylori strain Clinical 4, 37° C., 3 days, read-out: MIC Clinical 4): > 100 µg/mL; MIC (Helicobacter pylori; Helicobacter pylori, 72 h, H. pylori strain Clinical 82516, 37° C., 3 days, read-out: MIC Clinical 82516): > 100 µg/mL; MIC (Helicobacter pylori; Helicobacter pylori, 72 h, H. pylori strain Clinical 82548, 37° C., 3 days, read-out: MIC Clinical 82548): > 100 µg/mL; MIC (Helicobacter pylori; Helicobacter pylori, ATCC43504, 72 h, H. pylori strain ATCC 43504, 37° C., 3 days, read-out: MIC ATCC 43504): > 100 µg/mL; MIC (Helicobacter pylori; Helicobacter pylori, NCTC11637, 72 h, H. pylori strain NCTC 11637, 37° C., 3 days, read-out: MIC NCTC 11637): > 100 µg/mL; MIC (Helicobacter pylori; Helicobacter pylori, NCTC11638, 72 h, H. pylori strain NCTC 11638, 37° C., 3 days, read-out: MIC NCTC 11638): > 100 µg/mL; IC50 (H+/K+-ATPase): > 927 µM
CC(C)=CCC[C@](C)(O)[C@H]1CC[C@]2(C)[C@@H]1[C@H](O)C[C@@H]1[C@@]3(C)CC[C@H](O[C@@H]4O[C@H](CO)[C@@H](O)[C@H](O)[C@H]4O)C(C)(C)[C@@H]3CC[C@]12C [20(S)-ginsenoside Rh2] | 100 µg/mL (≈ 161 µM) | 100 µg/mL (≈ 161 µM) | 100 µg/mL (≈ 161 µM) | 100 µg/mL (≈ 161 µM) | 100 µg/mL (≈ 161 µM) | 100 µg/mL (≈ 161 µM) | 500 µg/mL | 
CC(C)=CCC[C@@](C)(O)[C@H]1CC[C@]2(C)[C@@H]1[C@H](O)C[C@@H]1[C@@]3(C)CC[C@H](O)C(C)(C)[C@@H]3CC[C@]12C [protopanaxadiol] |  |  |  |  |  |  |  | MIC (Helicobacter pylori; strain not specified): 50 µg/mL (≈ 109 µM)
CC(C)=CCC[C@](C)(O[C@@H]1O[C@H](CO[C@@H]2O[C@H](CO)[C@@H](O)[C@H](O)[C@H]2O)[C@@H](O)[C@H](O)[C@H]1O)[C@H]1CC[C@]2(C)[C@@H]1[C@H](O)C[C@@H]1[C@@]3(C)CC[C@H](O[C@@H]4O[C@H](CO)[C@@H](O)[C@H](O)[C@H]4O[C@@H]4O[C@H](CO)[C@@H](O)[C@H](O)[C@H]4O)C(C)(C)[C@@H]3CC[C@]12C [Ginsenoside Rb1] | >100 µg/mL | >100 µg/mL | >100 µg/mL | >100 µg/mL | >100 µg/mL | >100 µg/mL | >1000 µg/mL | 
CC(C)=CCC[C@](C)(O)[C@H]1CC[C@]2(C)[C@@H]1[C@H](O)C[C@@H]1[C@@]3(C)CC[C@H](O)C(C)(C)[C@@H]3[C@@H](O[C@@H]3O[C@H](CO)[C@@H](O)[C@H](O)[C@H]3O)C[C@]12C [Ginsenoside Rh1] | >100 µg/mL | >100 µg/mL | >100 µg/mL | >100 µg/mL | >100 µg/mL | >100 µg/mL | >1000 µg/mL | 
CC(C)=CCC[C@](C)(O)[C@H]1CC[C@]2(C)[C@@H]1[C@H](O)C[C@@H]1[C@@]3(C)CC[C@H](O)C(C)(C)[C@@H]3CC[C@]12C [20(S)-protopanaxadiol] | 50 µg/mL (≈ 109 µM) | 50 µg/mL (≈ 109 µM) | 50 µg/mL (≈ 109 µM) | 50 µg/mL (≈ 109 µM) | 50 µg/mL (≈ 109 µM) | 50 µg/mL (≈ 109 µM) | >1000 µg/mL | inhibiting activity of proliferation of Helicobacter strain (Helicobacter pylori; result in words): potent inhibiting activity
CC(C)=CCC[C@](C)(O[C@@H]1O[C@H](CO[C@@H]2OC[C@H](O)[C@H](O)[C@H]2O)[C@@H](O)[C@H](O)[C@H]1O)[C@H]1CC[C@]2(C)[C@@H]1[C@H](O)C[C@@H]1[C@@]3(C)CC[C@H](O[C@@H]4O[C@H](CO)[C@@H](O)[C@H](O)[C@H]4O[C@@H]4O[C@H](CO)[C@@H](O)[C@H](O)[C@H]4O)C(C)(C)[C@@H]3CC[C@]12C [Ginsenoside Rb2, reference compound] | >100 µg/mL | >100 µg/mL | >100 µg/mL | >100 µg/mL | >100 µg/mL | >100 µg/mL | >1000 µg/mL | 
CC1(C)CCC[C@](C)([C@H]2CC[C@]3(C)[C@@H]2[C@H](O)C[C@@H]2[C@@]4(C)CC[C@H](O)C(C)(C)[C@@H]4[C@@H](O)C[C@]23C)O1 [panaxatriol] |  |  |  |  |  |  |  | MIC (Helicobacter pylori; Helicobacter pylori, strain not specified, read-out: MIC): 50 µg/mL (≈ 105 µM)
CC(C)=CCC[C@](C)(O[C@@H]1O[C@H](CO)[C@@H](O)[C@H](O)[C@H]1O)[C@H]1CC[C@]2(C)[C@@H]1[C@H](O)C[C@@H]1[C@@]3(C)CC[C@H](O)C(C)(C)[C@@H]3CC[C@]12C [Compound K, reference compound] | >100 µg/mL | >100 µg/mL | >100 µg/mL | >100 µg/mL | >100 µg/mL | >100 µg/mL | >1000 µg/mL | 
CC(C)=CCC[C@](C)(O)[C@H]1CC[C@]2(C)[C@@H]1[C@H](O)C[C@@H]1[C@@]3(C)CC[C@H](O[C@@H]4O[C@H](CO)[C@@H](O)[C@H](O)[C@H]4O[C@@H]4O[C@H](CO)[C@@H](O)[C@H](O)[C@H]4O)C(C)(C)[C@@H]3CC[C@]12C [20(R)-ginsenoside Rg3] | 200 µg/mL (≈ 255 µM) | 200 µg/mL (≈ 255 µM) | 200 µg/mL (≈ 255 µM) | 200 µg/mL (≈ 255 µM) | 200 µg/mL (≈ 255 µM) | 200 µg/mL (≈ 255 µM) | 700 µg/mL | 
CC(C)=CCC[C@@](C)(O)[C@H]1CC[C@]2(C)[C@@H]1[C@H](O)C[C@@H]1[C@@]3(C)CC[C@H](O)C(C)(C)[C@@H]3CC[C@]12C [20(R)-protopanaxadiol] | 50 µg/mL (≈ 109 µM) | 50 µg/mL (≈ 109 µM) | 50 µg/mL (≈ 109 µM) | 50 µg/mL (≈ 109 µM) | 50 µg/mL (≈ 109 µM) | 50 µg/mL (≈ 109 µM) |  | 
CC(C)=CCC[C@](C)(O)[C@H]1CC[C@]2(C)[C@@H]1[C@H](O)C[C@@H]1[C@@]3(C)CC[C@H](O[C@@H]4O[C@H](CO)[C@@H](O)[C@H](O)[C@H]4O[C@@H]4O[C@H](CO)[C@@H](O)[C@H](O)[C@H]4O)C(C)(C)[C@@H]3CC[C@]12C [20(S)-ginsenoside Rg3] | 200 µg/mL (≈ 255 µM) | 200 µg/mL (≈ 255 µM) | 200 µg/mL (≈ 255 µM) | 200 µg/mL (≈ 255 µM) | 200 µg/mL (≈ 255 µM) | 200 µg/mL (≈ 255 µM) | 600 µg/mL | 
